Test results: patent US6399629B1, “Efflux pump inhibitors” (priority 1998, dated 2002)
Counter-ions that a name gives are not always drawn.

Test system: Pseudomonas aeruginosa PAM1001
Assay: microbe, parasite or virus in culture
Format: cell-based
Details: for Inhibition (%) of growth of P. aeruginosa PAM1001: Levofloxacin 0.25 μg/mL; for inhibition at 2.5 µg/mL / inhibition at 5 µg/mL / inhibition at 10 µg/mL / inhibition at 20 µg/mL / inhibition at 40 µg/mL: Pseudomonas aeruginosa, PAM1001, read-out: Inhibition (%) of growth of P. aeruginosa PAM1001
Experimental: For compounds labeled with the prefix ‘D’, potentiation is measured by inhibition of growth of Pseudomonas aeruginosa PAM1001 at varying concentrations of efflux pump inhibitors (EPIs) in the presence of levofloxacin (0.25 microg/mL). Bacteria are grown in Mueller Hinton Broth (MHB, Difco) with an initial inoculum of 1×10^6 CFU/mL. Kinetics of bacterial growth is monitored, during 18 h of incubation at 37° C., by measurement of the culture absorbance at 650 nm using a 96-well plate spectrophotometer (SpectraMax, Molecular Devices). The inhibitory effect of EPIs is expressed as a percentage of growth inhibition compared to a control bacterial culture grown in the presence of 0.25 microg/mL levofloxacin but without EPIs.

[1] = Concentration of Compound 2.5 μg/mL
[2] = Concentration of Compound 5 μg/mL
[3] = Concentration of Compound 10 μg/mL
[4] = Concentration of Compound 20 μg/mL
[5] = Concentration of Compound 40 μg/mL

For `CNCC(=O)N[C@H]1CN[C@H](C(=O)N2C[C@H](NC(=O)[C@H](O)CCc3ccccc3)C[C@H]2C(=O)Nc2cnc3ccccc3c2)C1.Cl.Cl.Cl` (relative stereo) [Compound D106], the “Inhibition (%) of growth of P. aeruginosa PAM1001” value [1] was 19%, the “Inhibition (%) of growth of P. aeruginosa PAM1001” value [2] was 19% and the “Inhibition (%) of growth of P. aeruginosa PAM1001” value [3] was 20%. The “Inhibition (%) of growth of P. aeruginosa PAM1001” value [4] was 19% and the “Inhibition (%) of growth of P. aeruginosa PAM1001” value [5] was 100%.
For `Cl.Cl.NCC(=O)N[C@H]1CN[C@H](C(=O)NCc2ccc(-c3ccccc3)cc2)C1` (relative stereo) [Compound D316, trans-4-Glycylmino-L-Proline 4-Phenylbenzylamide Dihydrochloride], the “Inhibition (%) of growth of P. aeruginosa PAM1001” value [1] was 20%, the “Inhibition (%) of growth of P. aeruginosa PAM1001” value [2] was 20% and the “Inhibition (%) of growth of P. aeruginosa PAM1001” value [3] was 21%. For the same molecule, the “Inhibition (%) of growth of P. aeruginosa PAM1001” value [4] was 82% and the “Inhibition (%) of growth of P. aeruginosa PAM1001” value [5] was 100%.
`NCC(=O)N[C@@H]1CN[C@@H](C(=O)N2CCN(Cc3ccccc3)C[C@H]2CCc2ccccc2)C1` [Compound D409, (2R)-4-Benzyl-1-(trans-4-Glycylamino-D-Prolyl)-2-Phenethylpiperazine Trihydrochloride] showed an inhibition at 2.5 µg/mL of 22%, an inhibition at 5 µg/mL of 16% and an inhibition at 10 µg/mL of 99%. The inhibition at 20 µg/mL was 100% and the inhibition at 40 µg/mL was 100%.
`N[C@H]1CCN[C@H](C(=O)Nc2ccc(Oc3ccccc3)cc2)C1` [Compound D329, trans-4-Amino-L-Pipecolinoyl-(4-Phenoxyphenyl)-amide Dihydrochloride] gave an inhibition at 2.5 µg/mL of 20%, an inhibition at 5 µg/mL of 20% and an inhibition at 10 µg/mL of 17%. The inhibition at 20 µg/mL was 16% and the inhibition at 40 µg/mL was 97%.
In the case of `Cc1cc(C)cc(NC(=O)[C@@H](CCc2ccccc2)NC(=O)[C@@H]2C[C@@H](NC(=O)CN)CN2)c1` [Compound D205, trans-4-Glycylamino-L-Prolyl-D-Homophenylalanine 3,5-Dimethylphenylamide Dihydrochloride], the inhibition at 2.5 µg/mL is reported as 16%, the inhibition at 5 µg/mL is reported as 13% and the inhibition at 10 µg/mL is reported as 100%. It also gave an inhibition at 20 µg/mL of 100% and an inhibition at 40 µg/mL of 100%.
`NCCC1CN[C@H](C(=O)N2C[C@H](NC(=O)[C@H](O)CCc3ccccc3)C[C@H]2C(=O)Nc2cnc3ccccc3c2)C1` (stereo partly drawn) [Compound D110, 4-(2-Aminoethyl)-Prolyl-trans-4-((R)-2-Hydroxy-4-Phenylbutyrylamino)-L-Proline 3-Quinolylamide Trihydrochloride] was tested, and the inhibition at 2.5 µg/mL was 20%, the inhibition at 5 µg/mL was 20% and the inhibition at 10 µg/mL was 100%. The inhibition at 20 µg/mL was 100% and the inhibition at 40 µg/mL was 100%.
For `Cl.Cl.Cl.NCC(=O)N[C@H]1CN[C@H](C(=O)Nc2nc(-c3ccccc3)cs2)C1` (relative stereo) [Compound D326, trans 4GlycylaminoL-Proline 4-Phenylthiazol-2-ylamide Trihydrochloride], the “Inhibition (%) of growth of P. aeruginosa PAM1001” value [1] was 18%, the “Inhibition (%) of growth of P. aeruginosa PAM1001” value [2] was 19% and the “Inhibition (%) of growth of P. aeruginosa PAM1001” value [3] was 17%. For the same molecule, the “Inhibition (%) of growth of P. aeruginosa PAM1001” value [4] was 13% and the “Inhibition (%) of growth of P. aeruginosa PAM1001” value [5] was 74%.
For `Cl.Cl.Cl.NC[C@H](O)C(=O)N[C@H]1CN[C@H](C(=O)N2C[C@H](NC(=O)[C@H](O)CCc3ccccc3)C[C@H]2C(=O)Nc2cnc3ccccc3c2)C1` (relative stereo) [Compound D108, trans-4-((S)-3-Amino-2-Hydroxypropionylamino)-L-Prolyl-trans-4-((R)-2-Hydroxy-4-Phenylbutyrylamino)-L-Proline 3-Quinolylamide Trihydrochlonde], the “Inhibition (%) of growth of P. aeruginosa PAM1001” value [1] was 23%, the “Inhibition (%) of growth of P. aeruginosa PAM1001” value [2] was 22% and the “Inhibition (%) of growth of P. aeruginosa PAM1001” value [3] was 22%. For the same molecule, the “Inhibition (%) of growth of P. aeruginosa PAM1001” value [4] was 100% and the “Inhibition (%) of growth of P. aeruginosa PAM1001” value [5] was 101%.
In the case of `NCCC[C@@H](N)C(=O)N1C[C@H](NC(=O)CCCc2ccccc2)C[C@H]1C(=O)Nc1ccc2c(c1)CCC2` [Compound D121, D-Ornithyl-trans-4-(4-Phenylbutanoyl)amino-L-Proline 5-Indanylamide], the inhibition at 2.5 µg/mL is reported as 15%, the inhibition at 5 µg/mL is reported as 99% and the inhibition at 10 µg/mL is reported as 100%. It also gave an inhibition at 20 µg/mL of 100% and an inhibition at 40 µg/mL of 100%.
